Test results published in patent US6747050B1, “Isoxazoline derivative and a process for the preparation thereof” (LG Chem Investment Ltd., priority 1999, dated 2004).

Key:
[1] = tested on: C57BL/6 female mice; assay: anti-Fas antibody (Jo2)-induced liver apoptosis and lethality in mice; format: in vivo
Method: (§1) […] C57BL/6 female mice (18-20 g) were injected i.p. with compound 33MP dissolved in vehicle which consists of olive oil and 10% DMSO, or vehicle alone, at 1 hr before i.v. injection with 10 μg of Anti-Fas antibody (Jo2). Following 4 hrs of i.v. injection with Jo2 antibody, animals were placed under inhaled isoflurane anesthesia for blood collection and liver isolation. Mice were also i.p. injected with 0.2 μg/20 g of TNFα and 12 mg/20 g of D-galactosamine (TNFα/GalN) and compound 33MP or its salt form (Compound 33MP-Na). 8 hrs later, blood and liver tissues were isolated from anesthetized animals. The liver tissues were snap-frozen and stored at −80° C. until use. Plasma was isolated from blood by centrifugation at 12,000×g for 10 min at 4° C. and stored at −80° C. In some experiments for animal mortality, mice were i.p. injected with TNFα/GalN and caspase inhibitor was injected 1 hr before, simultaneously, 2 hrs, or 4 hrs after TNFα/GalN injection
(§2) Whole tissues (0.5 g) were homogenated in ice-cold lysis buffer (5 mM Tris, 20 mM EDTA, 0.5% Triton-X 100, pH8.0). […] The supernatant was obtained and extracted twice with a mixture of phenol and chloroform. One-tenth volume of 3 M sodium acetate was added to the solution, and DNA was precipitated by adding an equal volume of isopropanol. After storing at −20° C. overnight, a DNA pellet was obtained by centrifugation at 12,000×g for 15 min. at 4° C. and washed twice with 75% ethanol. The pellet was dried and resuspended in 100 μl of 20 mM Tris-HCl, pH 8.0. After digesting RNA with DNase-free RNase (0.1 mg/ml, at 37° C. for 1 hr, samples […] were electrophoresed through a 1.2% agarose gel in 450 mM Tris borate+EDTA (TBE), pH 8.0 buffer. DNA was photographed under visualized with UV light.
(§3) Liver tissues were homogenated in 10 mM HEPES buffer containing protease inhibitors (5 μg/ml aprotinin, 5 μg/ml pepstatin A, 10 μg/ml leupeptin, and 0.5 mM PMSF) and lysed by three feeze/thaw cycles. […] Protein concentration was determined with BCA protein assay reagent (pierce, Rockford, Ill.). Cytosol containing 200 μg protein was combined in 96-well plate with […] of synthetic substrate Ac-DEVD-pNA in 150 μl of 100 mM HEPES, pH 7.4, containing the protease inhibitors, and the reaction was conducted for 1 hr at 37° C. […] Plasma level of aspartate aminotransferase (AST) was analyzed by spectrophotometry using each enzyme assay kit (Sigma).

[2] = tested on: caspase-3-like activity (Ac-DEVD-pNA); assay: Caspase-3-like activity in TNFα/ActD-treated primary rat hepatocytes; format: cell-based; conditions: 100 μM, 8 hrs
Method: Primary rat hepatocytes were isolated and purified from male Sprague-Dawley rats using a collagenase digestion method. The hepatocytes were purified over 30% Percoll gradient by centrifugation at 1,000×g for 10 min. at 4° C. […] The cells were plated on collagen-coated tissue culture plates at a density of 2×10^5 cells/well in 12-well plates for cell viability analysis or 5×10^6 cells/100 mm dish for enzyme assays. After 18 hrs preculture, the cells were treated with 2,000 units/ml TNFα and 0.2 μg/ml Actinomycin (ActD). Caspase activity and cell viability was determined by colorimetry using a caspase substrate Ac-DEVD-pNA and crystal violet staining method at 8 hrs and 12 hrs, respectively.

[3] = tested on: C57BL/6 female mice; assay: TNFα-induced liver toxicity and lethality in mice; format: in vivo; conditions: TNFα/ActD
Method: as §1, with “Mice were also i.p. injected with 0.2 μg/20 g of TNFα and 12 mg/20 g of D-galactosamine (TNFα/GalN) and compound 33MP or its salt form (Compound 33MP-Na).” left out
as §2, §3

[4] = target: T1, caspase-1 (Homo sapiens, UniProt P29466); assay: Recombinant caspase enzyme inhibition, fluorogenic substrate Ac-YVAD-AMC; format: biochemical; conditions: Irreversible Inhibitors; read-out: Kobs/[I] for caspase-1
T1 construct: made in house; host or cells: transformed bacterium (pET vector)
T1 sequence (P29466 120-297 limits assumed): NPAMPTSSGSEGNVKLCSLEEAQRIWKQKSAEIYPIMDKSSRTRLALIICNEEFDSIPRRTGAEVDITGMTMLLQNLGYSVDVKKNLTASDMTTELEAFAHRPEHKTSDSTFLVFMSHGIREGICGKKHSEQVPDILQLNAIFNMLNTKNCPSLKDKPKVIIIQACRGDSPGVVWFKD
T1 sequence (P29466 317-404 limits assumed): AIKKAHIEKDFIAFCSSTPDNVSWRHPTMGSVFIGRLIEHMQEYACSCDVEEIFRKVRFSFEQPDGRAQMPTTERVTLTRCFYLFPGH
Method: (§4) In the present experiment recombinant caspases were purified from a transformed bacterium after human caspase genes were cloned into the expression vector pET, and then used in the experiment (Thornberry, N. A. et al. Nature, 1992, 356, 768. Thornberry, N. A. Methods in Enzymology, 1994, 615.).
(§5) Enzymatic activity was measured by a known procedure (Walker N. P. C. et al., Cell 1994, 78, 343). Briefly, 10 ng of recombinant protein was mixed with 50 mM Tris(pH 7.0), 1 mM DTT, 0.5 mM EDTA, 10% Glycerol buffer containing 1˜100 μM of enzyme substrate, Ac-YVAD-AMC or Ac-DEVD-AMC and then the changes by isolated AMC at 37° C. were recorded. The inhibitory activity for caspases was calculated from the early enzyme reaction rate by measuring the changes with fluorescence excited at […] and emitted at 460 nm (Range; Ki<100 nM).

[5] = target: T2, caspase-3 (Homo sapiens, UniProt P42574); assay: Recombinant caspase enzyme inhibition, fluorogenic substrate Ac-DEVD-AMC; format: biochemical; conditions: Irreversible Inhibitors; read-out: Kobs/[I] for caspase-3
T2 construct: made in house; host or cells: transformed bacterium (pET vector)
T2 sequence (P42574 29-175 limits assumed): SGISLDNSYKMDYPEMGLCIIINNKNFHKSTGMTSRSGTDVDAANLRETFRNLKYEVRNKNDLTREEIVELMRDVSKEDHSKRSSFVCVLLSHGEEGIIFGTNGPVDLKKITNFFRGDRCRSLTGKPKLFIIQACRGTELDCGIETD
T2 sequence (P42574 176-277 limits assumed): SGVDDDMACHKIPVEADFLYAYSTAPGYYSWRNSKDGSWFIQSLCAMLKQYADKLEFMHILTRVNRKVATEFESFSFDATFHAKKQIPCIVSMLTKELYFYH
Method: as §4, §5

For CC(C)[C@H](NC(=O)c1cccc2ccccc12)C1=NOC(Cc2ccccc2)(C(=O)N[C@@H](CC(=O)O)C(=O)COC(=O)c2c(Cl)cccc2Cl)C1 (stereo partly drawn) [Compound 33MP, (3S)-3-{3-[2-Methyl-(1S)-1-(1-naphthalenecarbonylamino)-propyl]-5-phenylmethyl-4,5-dihydro-isoxazole-5-carbonylamino}-4-keto-5-(2,6-dichlorobenzoyloxy)-pentanoic Acid], the “liver apoptosis determined by DNA fragmentation (FIG. 9A)” value ([1]; 0.4 mg/20 g, 1 mg/20 g i.p. 1 hr before antibody, 4 hrs) was “suppressed the liver apoptosis in a dose-dependent manner”, the “release of liver enzyme AST (FIG. 9B)” value ([1]; 4 hrs after anti-Fas antibody) was “significantly suppressed” and the “caspase-3-like activity in liver tissues (FIG. 10)” value ([1]; anti-Fas antibody increased activity about 25-folds) was “abrogated”. For the same molecule, the “inhibition of mortality compared with Z-VAD-fmk” value ([1]; mouse, in vivo) was “more effective”, the “suppression of AST release compared with Z-VAD-fmk” value ([1]; mouse, in vivo) was “higher” and the “suppression of liver apoptosis compared with Z-VAD-fmk” value ([1]; mouse, in vivo) was “higher”. For the same molecule, the “reduction of mortality (FIG. 11)” value ([1]; within 24 hrs, antibody alone 85% died) was “about 30%”, the “caspase-3-like activity increased by TNFα/ActD (FIG. 15A)” value [2] was “not different” and the “DNA fragmentation in liver tissues (FIG. 12A)” value [3] was “significantly reduced”. For the same molecule, the “caspase-3-like activity in liver (FIG. 13)” value [3] was “suppressed”, the “inhibitory effect on caspase activity compared with Z-VAD-fmk” value [3] was “higher” and the “protective effect compared with Z-VAD-fmk” value [3] was “higher”. For the same molecule, the “release of AST (FIG. 12B)” value [3] was “suppressed”.
Molecule CC(C)[C@H](NC(=O)c1cc2ccccc2[nH]1)C1=NOC(Cc2ccccc2)(C(=O)N[C@@H](CC(=O)O)C(=O)COC(=O)c2c(Cl)cccc2Cl)C1 (stereo partly drawn) [Compound 64, (3S)-3-{3-[2-Methyl-(1S)-1-(indole-2-carbonylamino)-propyl]-5-phenylmethyl-4,5-dihydro-isoxazole-5-carbonylamino}-4-keto-5-(2,6-dichlorobenzoyloxy)-pentanoic Acid] has a kinact/KI [4] of 707000 M⁻¹ s⁻¹ and a kinact/KI [5] of 1230 M⁻¹ s⁻¹.
For CC(C)[C@H](NC(=O)c1c[nH]c2ccccc12)C1=NOC(Cc2ccccc2)(C(=O)N[C@@H](CC(=O)O)C(=O)COC(=O)c2c(Cl)cccc2Cl)C1 (stereo partly drawn) [Compound 66, (3S)-3-{3-[2-Methyl-(1S)-1-(indole-3-carbonylamino)-propyl]-5-phenylmethyl-4,5-dihydro-isoxazole-5-carbonylamino}-4-keto-5-(2,6-dichlorobenzoyloxy)-pentanoic Acid], the kinact/KI [4] was 357000 M⁻¹ s⁻¹ and the kinact/KI [5] was 1560 M⁻¹ s⁻¹.
CC(C)[C@H](NC(=O)c1cccc2ccccc12)C1=NOC(C)(C(=O)N[C@@H](CC(=O)O)C(=O)COC(=O)c2c(Cl)cccc2Cl)C1 (stereo partly drawn) [Compound 68, (3S)-3-{3-[2-Methyl-(1S)-1-(naphthalene-1-carbonylamino)-propyl]-5-methyl-4,5-dihydro-isoxazole-5-carbonylamino}-4-keto-5-(2,6-dichlorobenzoyloxy)-pentanoic Acid] showed a kinact/KI [4] of 616000 M⁻¹ s⁻¹ and a kinact/KI [5] of 2390 M⁻¹ s⁻¹.
